Measured values from the supplement of paper PMC10307832.

Assays:
Experiment in all cases: relative viability (nuclei count vs DMSO), 5 days (fraction); higher = more cells survive
[1] = compound: C[C@H]([C@@H](C(=O)N)NC(=O)[C@@H]1CSSC[C@@H](C(=O)N[C@H](C(=O)N[C@@H](C(=O)N[C@H](C(=O)N1)CCCCN)CC2=CNC3=CC=CC=C32)CC4=CC=C(C=C4)O)NC(=O)[C@@H](CC5=CC=CC=C5)N)O [CAP-232] + Cc1cc(Nc2cc(N3CCN(C)CC3)nc(Sc3ccc(NC(=O)C4CC4)cc3)n2)n[nH]1 [Tozasertib] (partner 0.1 µM)
Method in brief: (§1)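 Nuclei were stained with Hoechst during a one-step fixation (final 0.05% Triton X-100, 1% formaldehyde, 1 ug/ml Hoechst) carried out 5 days after dosing, then counted on 4× images. The cells, lung cancer lines in 1536-well plates, had been dosed by pin tool the day after seeding with one drug alone or a fixed anchor-drug dose plus five library-drug doses (not always all listed) in √10 steps. Relative viability is the nuclei count in treated wells divided by that in vehicle wells, and each value is the median of duplicate plates.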

[2] = compound: C[C@H]([C@@H](C(=O)N)NC(=O)[C@@H]1CSSC[C@@H](C(=O)N[C@H](C(=O)N[C@@H](C(=O)N[C@H](C(=O)N1)CCCCN)CC2=CNC3=CC=CC=C32)CC4=CC=C(C=C4)O)NC(=O)[C@@H](CC5=CC=CC=C5)N)O [CAP-232] + COc1cccc2cc(-c3nc([C@H]4CC[C@H](C(=O)O)CC4)n4ncnc(N)c34)[nH]c12 [OSI-027] (partner 0.5 µM)
Method in brief: as §1

[3] = compound: C[C@H]([C@@H](C(=O)N)NC(=O)[C@@H]1CSSC[C@@H](C(=O)N[C@H](C(=O)N[C@@H](C(=O)N[C@H](C(=O)N1)CCCCN)CC2=CNC3=CC=CC=C32)CC4=CC=C(C=C4)O)NC(=O)[C@@H](CC5=CC=CC=C5)N)O [CAP-232] + Nc1nc2[nH]cc(CCc3ccc(C(=O)N[C@@H](CCC(=O)O)C(=O)O)cc3)c2c(=O)[nH]1 [Pemetrexed] (partner 0.2 µM)
Method in brief: as §1

[4] = compound: C[C@H]([C@@H](C(=O)N)NC(=O)[C@@H]1CSSC[C@@H](C(=O)N[C@H](C(=O)N[C@@H](C(=O)N[C@H](C(=O)N1)CCCCN)CC2=CNC3=CC=CC=C32)CC4=CC=C(C=C4)O)NC(=O)[C@@H](CC5=CC=CC=C5)N)O [CAP-232] + CC1(C)CCC(c2ccc(Cl)cc2)=C(CN2CCN(c3ccc(C(=O)NS(=O)(=O)c4ccc(N[C@H](CCN5CCOCC5)CSc5ccccc5)c(S(=O)(=O)C(F)(F)F)c4)cc3)CC2)C1 [Navitoclax] (partner 0.5 µM)
Method in brief: as §1

[5] = compound: C[C@H]([C@@H](C(=O)N)NC(=O)[C@@H]1CSSC[C@@H](C(=O)N[C@H](C(=O)N[C@@H](C(=O)N[C@H](C(=O)N1)CCCCN)CC2=CNC3=CC=CC=C32)CC4=CC=C(C=C4)O)NC(=O)[C@@H](CC5=CC=CC=C5)N)O [CAP-232] + COc1cc2c(Oc3ccc(NC(=O)C4(C(=O)Nc5ccc(F)cc5)CC4)cc3F)ccnc2cc1OCCCN1CCOCC1 [Foretinib] (partner 0.25 µM)
Method in brief: as §1

Row | Cell Line | relative viability ([1]; first compound 0.4 µM) | relative viability ([1]; first compound 1.265 µM) | relative viability ([1]; first compound 4 µM) | relative viability ([1]; first compound 12.65 µM) | relative viability ([2]; first compound 0.4 µM) | relative viability ([2]; first compound 1.265 µM) | relative viability ([2]; first compound 4 µM) | relative viability ([2]; first compound 12.65 µM) | relative viability ([3]; first compound 0.4 µM) | relative viability ([3]; first compound 1.265 µM) | relative viability ([3]; first compound 4 µM) | relative viability ([3]; first compound 12.65 µM) | relative viability ([4]; first compound 0.4 µM) | relative viability ([4]; first compound 1.265 µM) | relative viability ([4]; first compound 4 µM) | relative viability ([4]; first compound 12.65 µM) | relative viability ([5]; first compound 0.4 µM) | relative viability ([5]; first compound 1.265 µM) | relative viability ([5]; first compound 4 µM) | relative viability ([5]; first compound 12.65 µM)
1 | NCI-H838 | 0.274 | 0.273 | 0.286 | 0.231 | 0.342 | 0.434 | 0.461 | 0.314 | 0.254 | 0.26 | 0.245 | 0.261 | 1.21 | 1.19 | 1.28 | 0.556 | 1.23 | 1.02 | 1.11 | 0.75
2 | NCI-H1355 | 0.638 | 0.586 | 0.557 | 0.655 | 0.41 | 0.449 | 0.331 | 0.403 | 1.03 | 0.946 | 1.19 | 1 | 0.96 | 0.921 | 1.14 | 0.966 | 1.07 | 1.04 | 0.945 | 0.908
3 | NCI-H1395 | 0.677 | 0.793 | 0.765 | 0.79 | 0.647 | 0.532 | 0.67 | 0.707 | 0.971 | – | 0.917 | 0.503 | 1.14 | 1 | 1.07 | 0.927 | 0.971 | 0.997 | 0.854 | 1.11
4 | NCI-H1437 | 0.412 | 0.403 | 0.461 | 0.466 | 0.94 | 0.793 | 0.917 | 0.698 | 0.299 | 0.288 | 0.33 | 0.321 | 1.12 | 1.07 | 1.15 | 0.862 | 1.26 | 1.27 | 1.34 | 1.2
5 | NCI-H1650 | 0.427 | 0.38 | 0.391 | 0.213 | 0.637 | 0.491 | 0.756 | 0.215 | 0.436 | 0.385 | 0.451 | 0.336 | 1.34 | 1.08 | 1.36 | 0.478 | 1.07 | 1.11 | 1.25 | 0.542
6 | NCI-H1651 | 0.665 | 0.681 | 0.732 | 0.625 | 0.721 | 0.703 | 0.89 | 0.522 | 0.686 | 0.514 | 0.676 | 0.709 | 1.02 | 0.969 | 1.08 | 0.535 | 0.709 | 0.913 | 0.843 | 0.485
7 | NCI-H1666 | 0.631 | 0.574 | 0.673 | 0.345 | 0.973 | 0.809 | 0.907 | 0.769 | 0.911 | 0.887 | 0.984 | 0.874 | 0.89 | – | 1.08 | 0.931 | 0.946 | 0.989 | 0.892 | 0.821
8 | NCI-H1734 | 0.248 | 0.272 | 0.266 | 0.197 | 0.558 | 0.59 | 0.56 | 0.406 | 0.44 | 0.402 | 0.402 | 0.307 | 0.778 | 0.849 | 0.889 | 0.767 | 0.883 | 0.863 | 0.971 | 0.697
9 | NCI-H1755 | 0.581 | 0.498 | 0.58 | 0.498 | 0.699 | 0.713 | 0.754 | 0.653 | 0.398 | 0.375 | 0.514 | 0.393 | 0.6 | 1.1 | 1.1 | 0.949 | 0.927 | 0.883 | 0.934 | 0.815
10 | NCI-H1793 | 0.375 | 0.355 | 0.486 | 0.356 | 0.282 | 0.253 | 0.196 | 0.25 | 1.01 | 0.61 | 0.905 | 0.696 | 0.412 | 0.346 | 0.329 | 0.361 | 0.678 | 0.761 | 0.639 | 0.725
11 | NCI-H1915 | 0.593 | 0.432 | 0.444 | 0.466 | 0.566 | 0.601 | 0.672 | 0.325 | 0.563 | 0.41 | 0.55 | 0.464 | 0.825 | 0.75 | 0.771 | 0.766 | 1.11 | 1.11 | 1.11 | 1.09
12 | NCI-H1944 | 0.245 | 0.253 | 0.27 | 0.263 | 0.379 | 0.388 | 0.403 | 0.392 | 0.569 | 0.517 | 0.601 | 0.573 | 1.06 | 1.01 | 1.04 | 0.98 | 0.849 | 0.862 | 0.906 | 0.882
13 | NCI-H1975 | 0.968 | 0.75 | 0.94 | 0.482 | 0.856 | 0.646 | 0.91 | 0.487 | 0.32 | 0.289 | 0.307 | 0.197 | 1.24 | 1.1 | 1.28 | 0.853 | 0.931 | 0.915 | 1.06 | 0.474
14 | NCI-H1993 | 0.621 | 0.569 | 0.664 | 0.582 | 0.604 | 0.539 | 0.544 | 0.492 | 0.602 | 0.533 | 0.553 | 0.586 | 0.961 | 0.864 | 1.15 | 0.907 | 0.804 | 0.775 | 0.829 | 0.757
